# What was measured:
# hepatocytes = details: cited from earlier work
# HDV [1] = details: in vitro; cited from earlier work
# HDV [2] = experiment: Woodchuck model of chronic HDV infection: serum HDV RNA; type: in vivo
# Description: (§1) The woodchuck was used as an experimental model of chronic HDV infection to assess the effect of L-FMAU treatment on HDV replication. Woodchucks chronically infected with WHV were infected with a woodchuck-adapted HDV inoculum derived from a laboratory infectious clone. Nine of eleven infected animals were determined to have chronic HDV infection, as defined by RT/PCR-detectable HDV viremia (Niro et al. (1997) Hepatology 25, 728-734) for at least 74% of bleed dates for at least 11 months prior to the initiation of treatment. The range of duration of viremia prior to the start of the study was 11.4-20 months; the range of positive bleed dates was 74% to 100%. Animals in the treatment group (4) were given 10 mg/kg L-FMAU daily; animals in the control group (5) were given placebo. Serum samples were obtained before the initiation of treatment, and at weeks 2, 4, 8, 12, 16 and 20. Serum samples were analyzed for WHV DNA, WHV surface antigen and HDV RNA.
# WHV = experiment: Woodchuck model of chronic HDV infection: serum WHV DNA; type: in vivo
# Description: as §1
# WHV surface antigen = experiment: Woodchuck model of chronic HDV infection: serum WHV surface antigen; type: in vivo
# Description: as §1
# HDV [3] = details: in vivo; cited from earlier work
# [4] = one animal in the treated group, animal 4543
smiles,measurement,setting,value
Cc1ccc(C(=O)Nc2ccc(S(=O)(=O)O)c3cc(S(=O)(=O)O)cc(S(=O)(=O)O)c23)cc1NC(=O)c1cccc(NC(=O)Nc2cccc(C(=O)Nc3cc(C(=O)Nc4ccc(S(=O)(=O)O)c5cc(S(=O)(=O)O)cc(S(=O)(=O)O)c45)ccc3C)c2)c1 [suramin],entry of the virion into hepatocytes,hepatocytes,blocks
Nc1nc2c(ncn2COCCO)c(=O)[nH]1 [Acyclovir],HDV replication,HDV [1],enhances
"Cc1cn([C@H]2O[C@@H](CO)[C@H](O)[C@H]2F)c(=O)[nH]c1=O [L-FMAU, 2′-fluoro-5-methyl-β-L-arabinofuranosyl-uridine]",HDV RNA in serum,"HDV [2]; 10 mg/kg L-FMAU daily, by 16 weeks of treatment (FIG. 6A)",undetectable in ¾ treated animals
same,"HDV viremia, animal 4543",HDV [2]; [4],remained high
same,serum HDV-RNA (FIG. 6A),HDV [2]; over twenty weeks of treatment,significant decrease
same,mean serum HDV RNA,"HDV [2]; woodchucks 4878, 4879, 4883, by 8 weeks of treatment vs start of treatment and vs five untreated animals (FIG. 8)",dramatic decline
same,decrease in serum WHV DNA,"WHV; 10 mg/kg L-FMAU daily, by 4 weeks of treatment, all treated animals (FIG. 6B)",> 10^7 fold
same,serum WHV-DNA (FIG. 6B),WHV; over twenty weeks of treatment,significant decrease
same,decrease in surface antigen levels,"WHV surface antigen; 10 mg/kg L-FMAU daily, by 12 weeks, all but one (animal 4543) of the treated animals (FIG. 6C)","~1,000 fold"
same,"levels of surface antigen, animal 4543",WHV surface antigen; [4],did not exhibit decreased levels
same,serum WHsAg (FIG. 6C),WHV surface antigen; over twenty weeks of treatment,significant decrease
same,surface antigen concentration after which HDV viremia became undetectable,"WHV surface antigen; treated animals with decreased surface antigen, sustained for remainder of treatment",less than 1 microgram/mL
same,drop of WHsAg levels during treatment,"WHV surface antigen; treated woodchucks 4878, 4879 and 4883",more than 100 fold
NC(=O)c1ncn([C@@H]2O[C@H](CO)[C@@H](O)[C@H]2O)n1 [Ribavirin],side-effects,HDV [3],severe side-effects
same,virological or biochemical parameters,HDV [3],did not significantly affect
